Laboratory results taken from ChEMBL document CHEMBL1201862, “PubChem BioAssay data set” (2004).
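Results reflect a 48-hour exposure of cells in 96-well plates to compound at five concentrations. Abbreviation: GI50, concentration required for 50% inhibition of growth.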 Activity calls are given as the source filed them. Cut-off read from the data, not from the text of the source: active = GI50 up to about 1.1 µM and inactive = higher.

Legend:
Assay in all cases: NCI tumour cell line growth inhibition, 48 h
IGROV-1 = test system: IGROV-1
OVCAR-4 = test system: OVCAR-4
HL-60 = test system: HL-60
A549 = test system: A549
OVCAR-8 = test system: OVCAR-8
CAKI-1 = test system: CAKI-1
HOP-62 = test system: HOP-62
UO-31 = test system: UO-31
K562 = test system: K562
SK-MEL-2 = test system: SK-MEL-2
EKVX = test system: EKVX
786-0 = test system: 786-0
NCI-H23 = test system: NCI-H23
SNB-75 = test system: SNB-75
OVCAR-3 = test system: OVCAR-3
KM12 = test system: KM12

Measured: GI50

COc1ccc2nc3cc(Cl)ccc3c(NCCC(=O)OCC(O)C(O)C(O[C@H](C)C(=O)NC(C)C(=O)NC(CCC(N)=O)C(=O)OCc3ccccc3)C(C=O)NC(C)=O)c2c1 (stereo not given in full)
inactive: IGROV-1 16 µM | OVCAR-4 20 µM | HL-60 25.1 µM | A549 17.4 µM | OVCAR-8 16 µM | CAKI-1 20.2 µM | HOP-62 16.1 µM | UO-31 20.5 µM | K562 14 µM | SK-MEL-2 21.1 µM | EKVX 18.4 µM | 786-0 16.9 µM | NCI-H23 14.4 µM | SNB-75 16.1 µM | OVCAR-3 19.2 µM | KM12 19.1 µM

COC(=O)C1=C(O)C(O)=C(C(=O)OC)C1
inactive: IGROV-1 > 100 µM | OVCAR-4 > 100 µM | HL-60 > 100 µM | A549 > 100 µM | OVCAR-8 > 100 µM | CAKI-1 > 100 µM | HOP-62 > 100 µM | UO-31 > 100 µM | K562 > 100 µM | SK-MEL-2 > 100 µM | EKVX > 100 µM | 786-0 > 100 µM | NCI-H23 > 100 µM | SNB-75 > 100 µM | OVCAR-3 > 100 µM | KM12 > 100 µM

O=C(CSc1c2ccccc2nc2ccccc12)Nc1ccccc1-c1ccccc1NC(=O)CSc1c2ccccc2nc2ccccc12
inactive: IGROV-1 18.4 µM | OVCAR-4 1.48 µM | HL-60 6.17 µM | A549 13.3 µM | OVCAR-8 28.5 µM | CAKI-1 26.6 µM | HOP-62 31.8 µM | UO-31 34.2 µM | K562 2.37 µM | SK-MEL-2 17.6 µM | EKVX 21.4 µM | 786-0 6.76 µM | NCI-H23 18.9 µM | SNB-75 42.2 µM | OVCAR-3 16.4 µM | KM12 21.5 µM

Fc1cccc(C2SCc3nc4ccccc4n32)c1F (stereo not given)
inactive: IGROV-1 73.8 µM | OVCAR-4 42.1 µM | HL-60 16.1 µM | A549 69 µM | OVCAR-8 69.3 µM | CAKI-1 59.4 µM | HOP-62 > 100 µM | UO-31 41.9 µM | K562 33 µM | SK-MEL-2 7.52 µM | EKVX 36.6 µM | 786-0 92.9 µM | NCI-H23 49.7 µM | SNB-75 > 100 µM | OVCAR-3 29.1 µM | KM12 66.1 µM

Cc1cccc2c(=O)c([Se]c3coc4c(C)cccc4c3=O)coc12
inactive: IGROV-1 13.6 µM | OVCAR-4 16.7 µM | HL-60 30.6 µM | A549 7.71 µM | OVCAR-8 15.9 µM | CAKI-1 20.7 µM | HOP-62 11.9 µM | UO-31 14.9 µM | K562 69.5 µM | SK-MEL-2 18.5 µM | EKVX 17.3 µM | 786-0 17.3 µM | NCI-H23 17.2 µM | SNB-75 16.7 µM | OVCAR-3 25.2 µM | KM12 13.7 µM
